Experimental data published in publication PMC8412326, “A novel angiotensin I-converting enzyme inhibitory peptide derived from the trypsin hydrolysates of salmon bone proteins” (PLoS ONE, 2021).
Where two headings read alike, the source gives them in different places. Ends that are not written are not given here.

What was measured:
ACE [1] = conditions: cited from earlier work
Text: Trp-Pro-Met-Gly-Phe (636.75 Da) is one such example, obtained from the trypsin hydrolysates of Cyclina sinensis, along with Val-Val-Ser-Leu-Ser-Ile-Pro-Arg (869.53 Da) which comes from pigeon pea seeds. There have been some ACE-inhibitory peptides reported to carry out their ACE-inhibitory activity through an uncompetitive pattern, including Ala-Trp, Phe-Tyr, and Ile-Trp which are derived from wakame hydrolysates of (Undaria pinnatifida) using protease, and also Phe-Glu-Ser-As ...

[2] = Solubility in ultrapure water; type: physicochemical; conditions: read-out: Solubility in ultrapure water (good solubility at concentrations not exceeding the value)
[3] = target: T1, ACE (E.C. 3.4.15.1) derived from rabbit lungs (Oryctolagus cuniculus, UniProt P12822); assay: ACE inhibition kinetics (Lineweaver-Burk); type: biochemical; conditions: secondary plot 1/Vmax vs peptide concentration; 37°C; n = 3
T1 construct: ACE (E.C. 3.4.15.1) derived from rabbit lungs; purchased Sigma Chemical Co. (St. Louis, MO, USA); host or cells: rabbit lung tissue
T1 sequence (P12822 34-1310): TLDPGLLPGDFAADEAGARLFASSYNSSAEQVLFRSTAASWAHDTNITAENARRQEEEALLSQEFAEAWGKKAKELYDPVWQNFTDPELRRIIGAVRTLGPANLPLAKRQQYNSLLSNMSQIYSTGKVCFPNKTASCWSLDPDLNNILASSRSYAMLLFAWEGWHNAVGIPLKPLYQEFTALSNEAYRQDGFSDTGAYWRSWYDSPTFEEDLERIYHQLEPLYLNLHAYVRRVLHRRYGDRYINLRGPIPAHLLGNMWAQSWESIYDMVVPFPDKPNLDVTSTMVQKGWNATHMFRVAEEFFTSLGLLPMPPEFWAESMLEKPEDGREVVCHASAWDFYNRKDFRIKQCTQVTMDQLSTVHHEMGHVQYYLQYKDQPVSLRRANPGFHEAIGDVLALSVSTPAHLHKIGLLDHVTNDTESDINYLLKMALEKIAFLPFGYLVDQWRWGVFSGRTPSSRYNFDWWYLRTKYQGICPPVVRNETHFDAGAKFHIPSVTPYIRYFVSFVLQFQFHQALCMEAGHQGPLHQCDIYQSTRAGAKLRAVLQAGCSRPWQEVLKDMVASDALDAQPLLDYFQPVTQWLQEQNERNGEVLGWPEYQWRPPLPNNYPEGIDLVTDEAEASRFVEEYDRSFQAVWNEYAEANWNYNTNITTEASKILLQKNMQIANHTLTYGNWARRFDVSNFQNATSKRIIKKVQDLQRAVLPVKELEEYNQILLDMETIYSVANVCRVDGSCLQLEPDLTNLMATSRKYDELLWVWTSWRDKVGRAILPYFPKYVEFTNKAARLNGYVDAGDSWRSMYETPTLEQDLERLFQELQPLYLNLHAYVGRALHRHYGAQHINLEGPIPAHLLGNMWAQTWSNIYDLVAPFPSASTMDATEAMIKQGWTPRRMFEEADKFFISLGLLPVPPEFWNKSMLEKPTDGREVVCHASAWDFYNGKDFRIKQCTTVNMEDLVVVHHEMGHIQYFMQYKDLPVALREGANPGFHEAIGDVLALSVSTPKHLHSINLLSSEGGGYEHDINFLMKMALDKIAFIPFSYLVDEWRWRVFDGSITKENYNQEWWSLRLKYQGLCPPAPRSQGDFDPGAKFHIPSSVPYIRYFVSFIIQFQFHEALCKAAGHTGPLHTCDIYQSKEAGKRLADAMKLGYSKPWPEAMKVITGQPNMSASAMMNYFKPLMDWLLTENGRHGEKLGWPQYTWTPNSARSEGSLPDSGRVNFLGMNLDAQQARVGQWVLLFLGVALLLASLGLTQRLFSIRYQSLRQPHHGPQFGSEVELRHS
Text: (§1) The chemicals used in the study included ACE (E.C. 3.4.15.1) derived from rabbit lungs, acetonitrile, bovine serum albumin (BSA), captopril, dithiothreitol (DTT), hippuric acid, hippuryl-L-histidyl-L-leucine (HHL), o-phthaldehyde (OPA), sodium dodecyl sulfate (SDS), sodium tetraborate decahydrate, 2, 4, 6-trinitrobenzenesulfonic acid (TNBS), and Trypsin from porcine pancreas (1500 U/mg), all of which were obtained from Sigma Chemical Co. (St. Louis, MO, USA). In addition, dithiothreitol (DTT) and L-serine were purchased from Merck (Germany). All chemicals used were of analytical grade.
ACE-inhibition kinetics were evaluated using varied HHL concentrations (0.5, 1, 3, 5, and 7 mM) to which varied FCLYELAR peptide concentrations were introduced (0.05, 0.1 and 0.2 mM). The reaction assay required that the peptide concentrations which had been dissolved in PBS undergo incubation with the ACE solution which contained the different HHL concentrations which had been dissolved in the reaction buffer. Aliquots of sodium sulfite and TNBS were subsequently added prior to 80minutes of incubation at a temperature of 37°C, allowing the level of ACE-inhibitory activity to be evaluated. […] Secondary plots were then used to determine the inhibitor constant (Ki). […]

[4] = target: T1, ACE (E.C. 3.4.15.1) derived from rabbit lungs; assay: ACE-inhibitory activity assay (HHL substrate, TNBS); type: biochemical; conditions: synthetic peptide, purity at least 95%; 5 mM HHL, pH 8.3, 37°C, 1 h, 420 nm
Text: as §1
The ACE -inhibition test was performed following the approach of Ibrahim et al.. At the beginning of the inhibition assay, a 10 μL aliquot of the peptide sample was added to 31 μL of 50 mM potassium phosphate buffer with a pH of 8.3 containing 0.3 M NaCl in each well of the 96-well microplate, while PBS was used for the control reaction. […] The ACE -inhibitory activity was determined by measuring the absorbance at 420 nm. […] The following Eq (3) was used to calculate the percentage of ACE -inhibitory activity: ACE-inhibitoryactivity%=C−Bi−S−Bs/C−Bi×100 (3) in which the absorbance of the control is given by C (100% activity), the sample (inhibitor peptide) is given by S, the blank inhibitor (HHL alone) is given by Bi, and the blank sample (peptide alone) is represented by Bs. […]

ACE [5] = conditions: cited from earlier work; remark: listed apart in the source
Text: For example, Phe-Leu was isolated from the hydrolysate of chum salmon muscle by Ono et al.. […] In addition, peptides offering antihypertensive capabilities obtained from ...

[6] = hen egg white lysozyme (HEWL) hydrolysates

Ala-Trp
Inhibition pattern (ACE [1]; wakame hydrolysates): uncompetitive

FCLYELAR [FCLYELAR, Phe-Cys-Leu-Tyr-Glu-Leu-Ala-Arg]
solubility [2]: ≥ 5000 µg/mL | Ki [3]: 24.8 µM | IC50 [4]: 31.63 ± 0.15 µM

FESNFNTQATNR [from lysozyme (HEWL) hydrolysates of hens’ eggs]
Inhibition pattern (ACE [1]; [6]): uncompetitive | Ki (ACE [1]; [6]): 82 µg/mL

FGASTRGA [from Alaska pollack hydrolysates with pepsin]
IC50 (ACE [5]; Alaska pollack hydrolysate, pepsin): 14.7 µM

FGMPLDR [from Ulva intestinalis]
IC50 (ACE [5]; Ulva intestinalis): 219 µM

Gly-Asp-Leu-Gly-Lys-Thr-Thr-Thr-Val-Ser-Asn-Trp-Ser-Pro-Pro-Lys-Try-Lys-Asp-Thr-Pro [from tuna frame protein]
IC50 (ACE [5]; tuna frame protein): 11.3 µM

Ile-Trp
Inhibition pattern (ACE [1]; wakame hydrolysates): uncompetitive

MELVLR [from Ulva intestinalis]
IC50 (ACE [5]; Ulva intestinalis): 237 µM

MEVFVP [from flounder muscle hydrolysates]
IC50 (ACE [5]; flounder muscle hydrolysate): 79 µM

Phe-Leu
IC50 (ACE [5]; chum salmon muscle hydrolysate, thermolysin): 13.6 µM

Phe-Tyr
Inhibition pattern (ACE [1]; wakame hydrolysates): uncompetitive

Trp-Pro-Met-Gly-Phe [from trypsin hydrolysates of Cyclina sinensis]
Inhibition pattern (ACE [1]; Cyclina sinensis trypsin hydrolysates): competitive

VSQLTR [from flounder muscle hydrolysates]
IC50 (ACE [5]; flounder muscle hydrolysate): 105 µM

VVSLSIPR [from pigeon pea seeds]
Inhibition pattern (ACE [1]; pigeon pea seeds): competitive

YLYEIARR [from the tryptic hydrolysate found in human plasma]
Inhibition pattern (ACE [1]; tryptic hydrolysate of human plasma): uncompetitive
